# In paper PMC5762315, “Inhibition of polo-like kinase 4 (PLK4): a new therapeutic option for rhabdoid tumors and pediatric medulloblastoma” (Oncotarget, 2017):
# Where “and” joins values, the source holds several entries; their conditions need not be identical. Identical values can stand only once.
# Key:
# Assay in all cases: LanthaScreen Eu Kinase Binding Assay, panel of 486 biochemical kinase assays
# [1] = biological target: various kinases (Homo sapiens, UniProt P06241); settings: FYN A
# [2] = biological target: T1, various kinases (Homo sapiens, UniProt Q99640); settings: kinase PKMYT1; LanthaScreen Binding
# T1 sequence (Q99640 1-499): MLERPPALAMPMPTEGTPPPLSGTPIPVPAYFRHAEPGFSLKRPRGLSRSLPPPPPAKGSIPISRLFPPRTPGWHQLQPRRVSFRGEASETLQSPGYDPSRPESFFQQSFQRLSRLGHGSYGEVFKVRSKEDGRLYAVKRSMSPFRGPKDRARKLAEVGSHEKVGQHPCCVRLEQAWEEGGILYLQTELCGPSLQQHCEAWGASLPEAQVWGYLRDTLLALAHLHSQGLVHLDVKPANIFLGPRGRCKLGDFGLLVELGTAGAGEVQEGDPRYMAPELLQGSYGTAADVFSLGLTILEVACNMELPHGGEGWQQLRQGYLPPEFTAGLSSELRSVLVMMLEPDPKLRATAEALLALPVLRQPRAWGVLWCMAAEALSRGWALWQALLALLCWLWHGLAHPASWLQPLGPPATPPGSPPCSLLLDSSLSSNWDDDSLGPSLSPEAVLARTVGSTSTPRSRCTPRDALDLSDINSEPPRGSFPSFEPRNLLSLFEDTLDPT
# [3] = biological target: various kinases (Homo sapiens, UniProt Q9UM73, L1196M); settings: ALK L1196M
# [4] = biological target: various kinases (Homo sapiens, UniProt P37173); settings: kinase TGFBR2; LanthaScreen Binding
# [5] = biological target: various kinases (Homo sapiens, UniProt P00519, M351T); settings: ABL1 M351T
# [6] = biological target: various kinases (Homo sapiens, UniProt Q15208); settings: kinase STK38 (NDR); LanthaScreen Binding
# [7] = biological target: various kinases (Homo sapiens, UniProt Q13555); settings: CAMK2G (CaMKII gamma)
# [8] = biological target: various kinases (Homo sapiens, UniProt Q16832, N456S); settings: DDR2 N456S
# [9] = biological target: various kinases (Homo sapiens, UniProt Q9UKE5); settings: kinase TNIK; LanthaScreen Binding
# [10] = biological target: various kinases (Homo sapiens, UniProt Q8N5S9); settings: CAMKK1 (CAMKKA)
# [11] = tested on: various kinases
# [12] = biological target: T2, various kinases (Homo sapiens, UniProt P36897); settings: kinase TGFBR1 (ALK5); LanthaScreen Binding
# T2 sequence (P36897 34-503): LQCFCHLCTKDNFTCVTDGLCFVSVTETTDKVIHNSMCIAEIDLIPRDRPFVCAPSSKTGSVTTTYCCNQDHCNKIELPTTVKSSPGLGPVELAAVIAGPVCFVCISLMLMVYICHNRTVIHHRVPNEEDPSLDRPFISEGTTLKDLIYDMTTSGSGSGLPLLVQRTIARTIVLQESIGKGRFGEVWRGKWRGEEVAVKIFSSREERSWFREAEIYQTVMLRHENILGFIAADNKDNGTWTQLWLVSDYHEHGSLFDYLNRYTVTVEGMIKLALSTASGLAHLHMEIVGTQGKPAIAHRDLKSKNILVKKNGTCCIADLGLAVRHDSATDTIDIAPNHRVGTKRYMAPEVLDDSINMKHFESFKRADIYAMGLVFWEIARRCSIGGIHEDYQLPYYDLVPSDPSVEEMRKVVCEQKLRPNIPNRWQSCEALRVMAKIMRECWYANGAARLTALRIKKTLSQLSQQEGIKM
# [13] = biological target: various kinases (Homo sapiens, UniProt Q9H2G2); settings: kinase SLK; LanthaScreen Binding
# Chain of various kinases (Homo sapiens, UniProt Q9H2G2) (Q9H2G2 whole entry): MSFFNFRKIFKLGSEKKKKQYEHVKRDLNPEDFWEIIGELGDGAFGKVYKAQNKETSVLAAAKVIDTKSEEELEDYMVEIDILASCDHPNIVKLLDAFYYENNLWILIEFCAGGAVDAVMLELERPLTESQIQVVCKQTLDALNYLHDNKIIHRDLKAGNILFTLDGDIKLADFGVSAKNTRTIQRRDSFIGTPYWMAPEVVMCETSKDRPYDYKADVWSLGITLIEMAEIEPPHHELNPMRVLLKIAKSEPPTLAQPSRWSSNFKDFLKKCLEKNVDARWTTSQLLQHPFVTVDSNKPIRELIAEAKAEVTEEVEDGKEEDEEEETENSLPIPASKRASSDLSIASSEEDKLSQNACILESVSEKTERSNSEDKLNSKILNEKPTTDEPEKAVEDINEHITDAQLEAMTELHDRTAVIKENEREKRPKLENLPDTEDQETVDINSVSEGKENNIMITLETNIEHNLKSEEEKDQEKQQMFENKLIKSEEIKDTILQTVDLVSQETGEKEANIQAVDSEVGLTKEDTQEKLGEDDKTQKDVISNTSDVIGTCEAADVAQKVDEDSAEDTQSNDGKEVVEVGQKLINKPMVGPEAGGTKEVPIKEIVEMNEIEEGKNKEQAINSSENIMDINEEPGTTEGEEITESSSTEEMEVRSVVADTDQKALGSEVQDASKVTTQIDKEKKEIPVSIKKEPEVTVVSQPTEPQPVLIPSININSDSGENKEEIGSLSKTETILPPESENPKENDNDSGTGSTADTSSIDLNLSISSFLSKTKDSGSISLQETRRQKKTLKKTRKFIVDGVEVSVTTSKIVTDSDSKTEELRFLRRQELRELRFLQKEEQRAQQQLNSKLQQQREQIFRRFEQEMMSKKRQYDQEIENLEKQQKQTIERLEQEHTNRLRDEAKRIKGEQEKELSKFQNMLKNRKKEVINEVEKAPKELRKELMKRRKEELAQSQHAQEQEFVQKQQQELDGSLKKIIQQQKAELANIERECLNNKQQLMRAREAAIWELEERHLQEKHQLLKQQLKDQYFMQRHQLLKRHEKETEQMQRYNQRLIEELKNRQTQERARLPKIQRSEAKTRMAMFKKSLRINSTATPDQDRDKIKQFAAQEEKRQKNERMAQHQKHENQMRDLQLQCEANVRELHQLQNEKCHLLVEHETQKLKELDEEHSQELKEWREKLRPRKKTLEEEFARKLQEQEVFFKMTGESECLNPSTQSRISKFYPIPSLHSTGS
# Chain of various kinases (Homo sapiens, UniProt P37173) (P37173 23-567): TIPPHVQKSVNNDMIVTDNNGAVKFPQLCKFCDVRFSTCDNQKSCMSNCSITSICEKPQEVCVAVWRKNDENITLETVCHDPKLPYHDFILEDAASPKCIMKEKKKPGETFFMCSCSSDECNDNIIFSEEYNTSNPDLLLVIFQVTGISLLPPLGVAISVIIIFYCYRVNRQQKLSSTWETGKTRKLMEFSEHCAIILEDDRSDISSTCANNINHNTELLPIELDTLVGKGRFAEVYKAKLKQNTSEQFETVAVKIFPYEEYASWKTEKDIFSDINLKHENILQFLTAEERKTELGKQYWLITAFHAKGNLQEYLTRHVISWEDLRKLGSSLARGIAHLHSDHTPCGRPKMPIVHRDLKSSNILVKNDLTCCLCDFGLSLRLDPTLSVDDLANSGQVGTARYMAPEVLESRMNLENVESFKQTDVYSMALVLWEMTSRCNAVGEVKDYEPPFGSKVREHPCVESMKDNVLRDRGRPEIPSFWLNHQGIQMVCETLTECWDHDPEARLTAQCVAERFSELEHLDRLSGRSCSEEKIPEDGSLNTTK
# Chain of various kinases (Homo sapiens, UniProt Q9UKE5) (Q9UKE5 whole entry): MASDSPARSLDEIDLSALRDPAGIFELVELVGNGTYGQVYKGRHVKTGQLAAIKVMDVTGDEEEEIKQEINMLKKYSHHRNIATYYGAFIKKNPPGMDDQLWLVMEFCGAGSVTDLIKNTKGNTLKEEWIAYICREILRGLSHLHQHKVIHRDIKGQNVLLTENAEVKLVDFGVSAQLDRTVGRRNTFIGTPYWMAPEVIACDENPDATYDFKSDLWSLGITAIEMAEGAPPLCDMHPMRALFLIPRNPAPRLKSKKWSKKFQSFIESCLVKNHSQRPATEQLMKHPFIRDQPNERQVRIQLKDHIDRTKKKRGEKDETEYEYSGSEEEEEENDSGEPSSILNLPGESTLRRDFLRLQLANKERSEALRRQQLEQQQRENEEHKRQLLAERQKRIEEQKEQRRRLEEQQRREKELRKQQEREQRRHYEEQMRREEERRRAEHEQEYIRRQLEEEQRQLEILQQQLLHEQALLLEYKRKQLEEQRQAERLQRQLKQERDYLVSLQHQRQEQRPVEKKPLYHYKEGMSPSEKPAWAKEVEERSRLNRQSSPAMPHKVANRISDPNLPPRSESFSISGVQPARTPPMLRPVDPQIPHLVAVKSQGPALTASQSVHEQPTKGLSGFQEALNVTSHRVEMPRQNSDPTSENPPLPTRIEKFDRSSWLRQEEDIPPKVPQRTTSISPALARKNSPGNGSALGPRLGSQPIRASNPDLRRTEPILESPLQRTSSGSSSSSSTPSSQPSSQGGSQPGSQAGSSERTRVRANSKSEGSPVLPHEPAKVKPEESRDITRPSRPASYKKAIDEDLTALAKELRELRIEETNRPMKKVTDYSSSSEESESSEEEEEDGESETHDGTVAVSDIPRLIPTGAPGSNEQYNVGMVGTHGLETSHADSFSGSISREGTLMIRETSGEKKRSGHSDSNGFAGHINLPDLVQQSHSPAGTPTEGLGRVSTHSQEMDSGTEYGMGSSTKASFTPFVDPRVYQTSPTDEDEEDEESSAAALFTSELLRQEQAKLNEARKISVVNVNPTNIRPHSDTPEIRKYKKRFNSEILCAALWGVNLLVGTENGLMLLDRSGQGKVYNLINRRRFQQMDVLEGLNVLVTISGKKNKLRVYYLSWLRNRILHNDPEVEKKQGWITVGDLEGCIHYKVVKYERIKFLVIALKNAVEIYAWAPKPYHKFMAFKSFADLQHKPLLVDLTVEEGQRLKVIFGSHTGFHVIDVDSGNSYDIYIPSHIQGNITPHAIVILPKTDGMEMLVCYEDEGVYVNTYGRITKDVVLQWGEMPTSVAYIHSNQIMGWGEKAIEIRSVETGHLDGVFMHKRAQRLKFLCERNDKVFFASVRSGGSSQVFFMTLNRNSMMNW
# Chain of various kinases (Homo sapiens, UniProt Q15208) (Q15208 whole entry): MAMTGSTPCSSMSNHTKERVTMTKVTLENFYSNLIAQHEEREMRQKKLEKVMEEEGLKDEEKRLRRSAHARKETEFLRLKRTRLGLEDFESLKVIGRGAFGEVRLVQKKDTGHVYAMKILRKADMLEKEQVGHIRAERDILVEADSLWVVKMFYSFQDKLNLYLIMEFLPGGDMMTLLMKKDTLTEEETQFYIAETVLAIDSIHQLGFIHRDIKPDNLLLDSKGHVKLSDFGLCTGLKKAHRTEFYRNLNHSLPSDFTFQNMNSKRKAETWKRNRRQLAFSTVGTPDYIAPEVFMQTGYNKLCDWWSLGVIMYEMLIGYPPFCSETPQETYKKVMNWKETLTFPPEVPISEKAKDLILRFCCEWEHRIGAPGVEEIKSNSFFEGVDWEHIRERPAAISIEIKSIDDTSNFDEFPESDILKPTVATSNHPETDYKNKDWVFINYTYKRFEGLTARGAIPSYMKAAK
# Chain of various kinases (Homo sapiens, UniProt Q13555) (Q13555 whole entry): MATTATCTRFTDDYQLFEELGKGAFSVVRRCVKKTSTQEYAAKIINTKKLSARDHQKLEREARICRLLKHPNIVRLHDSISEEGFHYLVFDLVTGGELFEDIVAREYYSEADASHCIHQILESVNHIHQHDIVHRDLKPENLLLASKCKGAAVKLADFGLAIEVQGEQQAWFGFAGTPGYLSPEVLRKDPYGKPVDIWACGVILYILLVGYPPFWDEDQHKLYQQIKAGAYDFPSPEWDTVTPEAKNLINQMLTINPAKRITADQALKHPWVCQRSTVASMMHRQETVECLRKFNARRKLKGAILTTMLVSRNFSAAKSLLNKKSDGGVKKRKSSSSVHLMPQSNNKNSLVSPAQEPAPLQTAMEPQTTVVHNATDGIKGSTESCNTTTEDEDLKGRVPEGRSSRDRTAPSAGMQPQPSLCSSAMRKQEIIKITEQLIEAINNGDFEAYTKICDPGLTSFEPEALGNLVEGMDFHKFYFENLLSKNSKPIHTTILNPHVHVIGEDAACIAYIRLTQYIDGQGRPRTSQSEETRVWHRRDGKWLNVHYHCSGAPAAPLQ
# Chain of various kinases (Homo sapiens, UniProt Q8N5S9) (Q8N5S9 whole entry): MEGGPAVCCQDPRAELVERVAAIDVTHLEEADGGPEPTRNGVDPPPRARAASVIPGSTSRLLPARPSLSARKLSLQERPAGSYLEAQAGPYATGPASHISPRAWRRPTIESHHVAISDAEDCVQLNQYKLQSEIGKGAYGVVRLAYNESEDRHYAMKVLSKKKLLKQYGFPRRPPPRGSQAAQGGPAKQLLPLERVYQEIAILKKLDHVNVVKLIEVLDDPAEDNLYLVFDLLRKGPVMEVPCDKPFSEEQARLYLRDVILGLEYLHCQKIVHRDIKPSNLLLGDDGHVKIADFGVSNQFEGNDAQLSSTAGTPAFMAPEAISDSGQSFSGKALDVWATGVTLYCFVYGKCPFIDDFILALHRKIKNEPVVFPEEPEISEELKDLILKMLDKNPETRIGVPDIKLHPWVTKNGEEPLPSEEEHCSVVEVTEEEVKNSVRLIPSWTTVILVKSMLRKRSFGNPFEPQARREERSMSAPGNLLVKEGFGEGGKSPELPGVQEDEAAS
compound,measurement,setting,value
COc1ccc2c(c1)[C@]1(C[C@H]1c1ccc3c(/C=C/c4ccc(CN5C[C@@H](C)O[C@@H](C)C5)cc4)n[nH]c3c1)C(=O)N2 [CFI-400945],% Inhibition,[1],8%
same,% Inhibition Average,[2],31%
same,% Inhibition Duplicate #1,[2],31%
same,% Inhibition Duplicate #2,[2],30%
same,% Inhibition,[3],14% and 25%
same,% Inhibition Average,[4],1%
same,% Inhibition Duplicate #1,[4],-2%
same,% Inhibition Duplicate #2,[4],5%
same,% Inhibition,[5],78% and 79%
same,% Inhibition Average,[6],0%
same,% Inhibition Duplicate #1,[6],-5%
same,% Inhibition Duplicate #2,[6],4%
same,% Inhibition,[7],50% and 36%
same,% Inhibition,[8],77% and 74%
same,% Inhibition Average,[9],26%
same,% Inhibition Duplicate #1,[9],33%
same,% Inhibition Duplicate #2,[9],18%
same,% Inhibition,[10],-4% and -3%
same,% Inhibition,[11]; ALK T1151_L1152insT,31% and 35%
same,% Inhibition,[11]; EGFR (ErbB1) d747-749 A750P,12% and 23%
same,% Inhibition,[11]; FLT3 ITD,45% and 41%
same,% Inhibition,[11]; MAP3K7/MAP3K7IP1 (TAK1-TAB1),8%
same,% Inhibition Average,[12],3%
same,% Inhibition Duplicate #1,[12],4%
same,% Inhibition Duplicate #2,[12],3%
same,% Inhibition Average,[13],5%
same,% Inhibition Duplicate #1,[13],4%
same,% Inhibition Duplicate #2,[13],6%
